Results taken from paper PMC5270753, “Novel thermostable antibiotic resistance enzymes from the Atlantis II Deep Red Sea brine pool” (Microbial Biotechnology, 2016).

Legend:
ATII-APH(3′) = tested on: T1, ATII-APH(3′); assay: pyruvate kinase/lactate dehydrogenase coupled assay, NADH oxidation at […] nm; format: biochemical; conditions: phosphorylation of aminoglycoside; Michaelis-Menten fit
T1 construct: full-length ORF (804 nt query), codon-optimised synthetic gene, N-terminal 10x-His tag (pET-16b), E. coli BL21(DE3), Talon-purified

ATII-ABL = tested on: T2, ATII-ABL; assay: chromogenic nitrocefin hydrolysis at […] nm; format: biochemical, uncultured bacterium; conditions: 100 nM enzyme; Michaelis-Menten fit
T2 construct: gene bla

## NCC[C@H](O)C(=O)N[C@@H]1C[C@H](N)[C@@H](O[C@H]2O[C@H](CN)[C@@H](O)[C@H](O)[C@H]2O)[C@H](O)[C@H]1O[C@H]1O[C@H](CO)[C@@H](O)[C@H](N)[C@H]1O [Amikacin]
ATII-APH(3′)
  Km: 5500 ± 1650 µM

## O=C(Cc1cccs1)N[C@@H]1C(=O)N2C(C(=O)O)=C(/C=C/c3ccc([N+](=O)[O-])cc3[N+](=O)[O-])CS[C@H]12 [Nitrocefin]
ATII-ABL
  Km: 5.07 ± 1.65 µM

## NC[C@H]1O[C@H](O[C@H]2[C@H](O)[C@@H](O[C@H]3O[C@H](CO)[C@@H](O)[C@H](N)[C@H]3O)[C@H](N)C[C@@H]2N)[C@H](O)[C@@H](O)[C@@H]1O [Kanamycin]
ATII-APH(3′)
  Km: 4.7 ± 0.96 µM
